This assay has as its target BTK (Homo sapiens (Human), UniProt Q06187). Nature of the assay: Btk kinase assay (HTRF). Format: biochemical. The conditions noted are these: [ATP]=80 μM, BTK=3.4 nM; read-out: BTK Inhibition. Summed up:
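BTK (3.4 nM) incubated 1 h with inhibitor, 80 μM ATP and 1 μM peptide substrate in 50 mM HEPES pH 7.0 with BSA and orthovanadate. Reaction stopped with EDTA plus Eu-antibody/XL665; HTRF 665/615 ratio read after 1 h, IC50 calculated relative to no-inhibitor and no-enzyme controls.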
On the technique in general: TR-FRET usually uses a lanthanide donor and a delayed reading to cut background.

Chain of BTK (Q06187 whole entry, species assumed): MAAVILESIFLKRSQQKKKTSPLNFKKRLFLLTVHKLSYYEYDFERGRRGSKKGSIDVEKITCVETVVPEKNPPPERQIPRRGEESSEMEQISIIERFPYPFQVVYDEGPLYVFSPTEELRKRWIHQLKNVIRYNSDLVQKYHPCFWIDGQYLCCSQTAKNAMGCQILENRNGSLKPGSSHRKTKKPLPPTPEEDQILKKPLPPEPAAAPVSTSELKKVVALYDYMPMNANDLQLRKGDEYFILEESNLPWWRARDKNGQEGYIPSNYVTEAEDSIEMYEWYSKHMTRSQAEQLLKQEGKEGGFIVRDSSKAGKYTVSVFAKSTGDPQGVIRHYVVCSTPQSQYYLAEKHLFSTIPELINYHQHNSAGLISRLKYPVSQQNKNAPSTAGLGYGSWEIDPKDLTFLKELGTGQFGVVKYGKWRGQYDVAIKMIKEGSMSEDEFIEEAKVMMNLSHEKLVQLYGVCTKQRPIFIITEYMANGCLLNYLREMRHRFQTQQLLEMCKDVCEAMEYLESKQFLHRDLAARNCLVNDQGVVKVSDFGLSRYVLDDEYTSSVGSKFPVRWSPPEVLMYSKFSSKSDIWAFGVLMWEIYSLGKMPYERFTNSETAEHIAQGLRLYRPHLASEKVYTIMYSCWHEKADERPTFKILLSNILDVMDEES

Consider `C=CC(=O)N1CCC(n2c(=O)n(-c3ccc(Oc4cccc(C(F)(F)F)c4)c(Cl)c3)c3cnccc32)C1` (stereo not drawn) [Example 6, 1-(1-acryloylpyrrolidin-3-yl)-3-(3-chloro-4-(3-(trifluoromethyl)phenoxy)phenyl)-1H-imidazo[4,5-c]pyridin-2(3H)-one], for which the IC50 fell in the range of 10 to 100 nM. With `C=CC(=O)Nc1cccc(-n2c(=O)n(-c3ccc(Oc4ccc(C#N)cc4)cc3)c3cnccc32)c1` [Example 162, N-(3-(3-(4-(4-cyanophenoxy)phenyl)-2-oxo-2,3-dihydro-1H-imidazo[4,5-c]pyridin-1-yl)phenyl)acrylamide] the figure was 100 to 1000 nM.

Regarding `C=CC(=O)N1CC[C@@H](n2c(=O)n(-c3ccc(Oc4ccccn4)cc3)c3cnccc32)C1` [Example 104, (R)-1-(1-acryloylpyrrolidin-3-yl)-3-(4-(pyridin-2-yloxy)phenyl)-1,3-dihydro-2H-imidazo[4,5-c]pyridin-2-one], the IC50 lay within 100 to 1000 nM. The value for `C=CC(=O)Nc1cccc(-n2c(=O)n(-c3cccc(Oc4ccccc4OC)c3)c3cnccc32)c1` [Example 89, N-(3-(3-(3-(2-methoxyphenoxy)phenyl)-2-oxo-2,3-dihydro-1H-imidazo[4,5-c]pyridin-1-yl)phenyl)acrylamide] was 10 to 100 nM; that for `C=CC(=O)Nc1cccc(-n2c(=O)n(-c3ccc(Oc4cccc(C)c4C)c(Cl)c3)c3cnccc32)c1` [Example 148, N-(3-(3-(3-chloro-4-(2,3-dimethylphenoxy)phenyl)-2-oxo-2,3-dihydro-1H-imidazo[4,5-c]pyridin-1-yl)phenyl)acrylamide] was 10 to 100 nM. The value for `C=CC(=O)Nc1cccc(-n2c(=O)n(-c3ccc(OCc4ccccc4C(F)(F)F)cc3)c3cnccc32)c1` [Example 232, N-(3-(2-oxo-3-(4-((2-(trifluoromethyl)benzyl)oxy)phenyl)-2,3-dihydro-1H-imidazo[4,5-c]pyridin-1-yl)phenyl)acrylamide] was 10 to 100 nM; that for `C=CC(=O)N1CC[C@@H](n2c(=O)n(-c3ccc(C(=O)N4CCOCC4)cc3)c3cnccc32)C1` [Example 250, (R)-1-(1-acryloylpyrrolidin-3-yl)-3-(4-(morpholine-4-carbonyl)phenyl)-1H-imidazo[4,5-c]pyridin-2(3H)-one] was 1000 to 10000 nM; that for `C=CC(=O)Nc1cccc(-n2c(=O)n(-c3ccc(Oc4cc(Cl)cc(Cl)c4)cc3)c3cnccc32)c1` [Example 130, N-(3-(3-(4-(3,5-dichlorophenoxy)phenyl)-2-oxo-2,3-dihydro-1H-imidazo[4,5-c]pyridin-1-yl)phenyl)acrylamide] was 100 to 1000 nM. The value for `CN(C/C=C/C(=O)N1CC[C@@H](n2c(=O)n(-c3ccc(Oc4ccccc4)cc3)c3cnccc32)C1)C1CC1` [Example 187, (R,E)-1-(1-(4-(cyclopropyl(methyl)amino)but-2-enoyl)pyrrolidin-3-yl)-3-(4-phenoxyphenyl)-1H-imidazo[4,5-c]pyridin-2(3H)-one] was 100 to 1000 nM. In the case of `C=CC(=O)N1CC[C@@H](n2c(=O)n(-c3ccc(Oc4cccc(Cl)c4)c(F)c3)c3cnccc32)C1` [Example 149, (R)-1-(1-acryloylpyrrolidin-3-yl)-3-(4-(3-chlorophenoxy)-3-fluorophenyl)-1H-imidazo[4,5-c]pyridin-2(3H)-one], the IC50 fell in the range of 10 to 100 nM.

In the case of `C=CC(=O)Nc1cccc(-n2c(=O)n(-c3ccc(Oc4ccc(Cl)c(F)c4)cc3)c3cnccc32)c1` [Example 160, N-(3-(3-(4-(4-chloro-3-fluorophenoxy)phenyl)-2-oxo-2,3-dihydro-1H-imidazo[4,5-c]pyridin-1-yl)phenyl)acrylamide], the IC50 was 100 to 1000 nM. `C=CC(=O)N1CCC[C@@H](n2c(=O)n(-c3ccc(Oc4cccc(F)c4OC)cc3)c3cnccc32)C1` [Example 140, (R)-1-(1-acryloylpiperidin-3-yl)-3-(4-(3-fluoro-2-methoxyphenoxy)phenyl)-1H-imidazo[4,5-c]pyridin-2(3H)-one]: the IC50 lay within 100 to 1000 nM. The value for `C=CC(=O)N1CC[C@@H](n2c(=O)n(-c3ccc(OCc4ccccn4)c(Cl)c3)c3cnccc32)C1` [Example 204, (R)-1-(1-acryloylpyrrolidin-3-yl)-3-(3-chloro-4-(pyridin-2-ylmethoxy)phenyl)-1H-imidazo[4,5-c]pyridin-2(3H)-one] was 100 to 1000 nM; that for `C=CC(=O)N1CC[C@@H](n2c(=O)n(-c3ccc(Oc4cccc(OC)c4F)cc3)c3cncc(C)c32)C1` [Example 172, (R)-1-(1-acryloylpyrrolidin-3-yl)-3-(4-(2-fluoro-3-methoxyphenoxy)phenyl)-7-methyl-1H-imidazo[4,5-c]pyridin-2(3H)-one] was at most 10 nM. The value for `C=CC(=O)N1CCC[C@@H](n2c(=O)n(-c3ccc(Oc4cccc(Cl)c4C)cc3)c3cnccc32)C1` [Example 134, (R)-1-(1-acryloylpiperidin-3-yl)-3-(4-(3-chloro-2-methylphenoxy)phenyl)-1H-imidazo[4,5-c]pyridin-2(3H)-one] was 10 to 100 nM. Regarding `C=CC(=O)N1CC[C@@H](n2c(=O)n(-c3ccc(Oc4cccc(OC)c4Cl)cc3)c3cnccc32)C1` [Example 135, (R)-1-(1-acryloylpyrrolidin-3-yl)-3-(4-(2-chloro-3-methoxyphenoxy)phenyl)-1H-imidazo[4,5-c]pyridin-2(3H)-one], the IC50 lay in the range of 10 to 100 nM. With `C=CC(=O)N1CC[C@@H](n2c(=O)n(-c3ccc(Oc4cccc(F)c4)c(Cl)c3)c3cnccc32)C1` [Example 41, (R)-1-(1-acryloylpyrrolidin-3-yl)-3-(3-chloro-4-(3-fluorophenoxy)phenyl)-1H-imidazo[4,5-c]pyridin-2(3H)-one] the figure was at most 10 nM; with `CC(=O)N1CC[C@@H](n2c(=O)n(-c3ccc(Oc4ccccc4)cc3)c3cnccc32)C1` [Example 32, (R)-1-(1-acetylpyrrolidin-3-yl)-3-(4-phenoxyphenyl)-1H-imidazo[4,5-c]pyridin-2(3H)-one], at least 10000 nM; with `C=CC(=O)N1CCC[C@@H](n2c(=O)n(-c3ccc(Oc4cccc(C)c4OC)cc3)c3cnccc32)C1` [Example 66, (R)-1-(1-acryloylpiperidin-3-yl)-3-(4-(2-methoxy-3-methylphenoxy)phenyl)-1H-imidazo[4,5-c] pyridin-2(3H)-one], 10 to 100 nM. Regarding `C=CC(=O)Nc1cccc(-n2c(=O)n(-c3ccc(C(=O)Nc4cccc(C(F)(F)F)c4)cc3)c3cnccc32)c1` [Example 251, 4-(1-(3-acrylamidophenyl)-2-oxo-1H-imidazo[4,5-c]pyridin-3(2H)-yl)-N-(3-(trifluoromethyl)phenyl)benzamide], the IC50 was in the range of 1000 to 10000 nM. The value for `C=CC(=O)N1CC[C@@H](n2c(=O)n(-c3ccc(Oc4cccc(Cl)c4Cl)cc3)c3cnccc32)C1` [Example 99, (R)-1-(1-acryloylpyrrolidin-3-yl)-3-(4-(2,3-dichlorophenoxy)phenyl)-1,3-dihydro-2H-imidazo[4,5-c]pyridin-2-one] was 10 to 100 nM; that for `C=CC(=O)Nc1cccc(-n2c(=O)n(-c3ccc(Oc4cccc(F)c4C)cc3)c3cnccc32)c1` [Example 79, N-(3-(3-(4-(3-fluoro-2-methylphenoxy)phenyl)-2-oxo-2,3-dihydro-1H-imidazo[4,5-c]pyridin-1-yl)phenyl)acrylamide] was 10 to 100 nM; that for `C=CC(=O)N1CCC[C@@H](n2c(=O)n(-c3ccc(Oc4cccc(OC(C)C)c4)cc3)c3cnccc32)C1` [Example 14, (R)-1-(1-acryloylpiperidin-3-yl)-3-(4-(3-isopropoxyphenoxy)phenyl)-1H-imidazo[4,5-c]pyridin-2(3H)-one] was 10 to 100 nM. On to `CC(C)(C)/C=C(/C#N)C(=O)N1CCCC1Cn1c(=O)n(-c2ccc(Oc3ccccc3)cc2)c2cnccc21` (stereo not drawn) [Example 180, 4,4-Dimethyl-2-{2-[2-oxo-3-(4-phenoxy-phenyl)-2,3-dihydro-imidazo[4,5-c]pyridin-1-ylmethyl]-pyrrolidine-1-carbonyl}-pent-2-enenitrile], for which the IC50 fell in the range of 100 to 1000 nM. The value for `C=CC(=O)N1CCC[C@@H](n2c(=O)n(-c3ccc(Oc4cccc(OC)c4C)cc3)c3cnccc32)C1` [Example 142, (R)-1-(1-acryloylpiperidin-3-yl)-3-(4-(3-methoxy-2-methylphenoxy)phenyl)-1H-imidazo[4,5-c]pyridin-2(3H)-one] was 10 to 100 nM; that for `C=CC(=O)N1CC[C@@H](n2c(=O)n(-c3ccc(Oc4cccc(OC(C)C)c4)c(F)c3)c3cnccc32)C1` [Example 52, (R)-1-(1-acryloylpyrrolidin-3-yl)-3-(3-fluoro-4-(3-isopropoxyphenoxy)phenyl)-1H-imidazo[4,5-c]pyridin-2(3H)-one] was 100 to 1000 nM.

Take `C=CC(=O)N1CC[C@@H](n2c(=O)n(-c3ccc(Oc4ccc(C(F)(F)F)cc4)c(Cl)c3)c3cnccc32)C1` [Example 43, (R)-1-(1-acryloylpyrrolidin-3-yl)-3-(3-chloro-4-(4-(trifluoromethyl)phenoxy)phenyl)-1H-imidazo[4,5-c]pyridin-2(3H)-one]: the IC50 is 100 to 1000 nM. With `C=CC(=O)N1CCC[C@@H](n2c(=O)n(-c3ccc(Oc4cccc(C)c4)c(F)c3)c3cnccc32)C1` [Example 105, (R)-1-(1-acryloylpiperidin-3-yl)-3-(3-fluoro-4-(m-tolyloxy)phenyl)-1H-imidazo[4,5-c]pyridin-2(3H)-one] the figure was 10 to 100 nM; with `C=CC(=O)Nc1cccc(-n2c(=O)n(-c3cccc(Oc4cccc(F)c4)c3)c3cnccc32)c1` [Example 75, N-(3-(3-(3-(3-fluorophenoxy)phenyl)-2-oxo-2,3-dihydro-1H-imidazo[4,5-c]pyridin-1-yl)phenyl)acrylamide], 10 to 100 nM. As to `C=CC(=O)Nc1cccc(-n2c(=O)n(-c3ccc(OCc4ccc(C(F)(F)F)cc4)c(Cl)c3)c3cnccc32)c1` [Example 223, N-(3-(3-(3-chloro-4-((4-(trifluoromethyl)benzyl)oxy)phenyl)-2-oxo-2,3-dihydro-1H-imidazo[4,5-c]pyridin-1-yl)phenyl)acrylamide], the IC50 was in the range of 100 to 1000 nM.

Values taken from US10358446B2, “Bruton's tyrosine kinase inhibitors” (Zibo Biopolar Changsheng Pharmaceutical Co. Ltd., priority 2015, dated 2019).
